This assay has as its target T1, HCV polymerase (Hepatitis C virus genotype 1b, UniProt P26663).
T1 construct: a region encoding NS5B (J Virol 1991 March, 65(3), 1105-13, 544 amino acids after deletion of 47 amino acids on the C-terminal); 6xHis (C); made in house; host or cells: Escherichia coli
The assay can be described thus: biochemical. More on the design: species or system HCV BK strain. In outline: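 Recombinant HCV BK-strain NS5B (C-terminal 47 aa deleted, His6-tagged, E. coli), 0.5 μg/ml, run with 5 μg/ml in vitro-transcribed RNA template (polyU/3′X), ATP/GTP/CTP 50 μM, UTP 2 μM plus [3H]UTP, pH 7.5, 25° C, 90 min. TCA-precipitated RNA counted by scintillation; IC50 from activity with vs without compound.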

The results in this text go back to US20070049593A1 (priority 2004, published 2007).

Counter-ions that a name gives are not always drawn.

The term IC50 denotes the concentration at which inhibition is half-maximal.

T1 sequence (P26663 2420-2963): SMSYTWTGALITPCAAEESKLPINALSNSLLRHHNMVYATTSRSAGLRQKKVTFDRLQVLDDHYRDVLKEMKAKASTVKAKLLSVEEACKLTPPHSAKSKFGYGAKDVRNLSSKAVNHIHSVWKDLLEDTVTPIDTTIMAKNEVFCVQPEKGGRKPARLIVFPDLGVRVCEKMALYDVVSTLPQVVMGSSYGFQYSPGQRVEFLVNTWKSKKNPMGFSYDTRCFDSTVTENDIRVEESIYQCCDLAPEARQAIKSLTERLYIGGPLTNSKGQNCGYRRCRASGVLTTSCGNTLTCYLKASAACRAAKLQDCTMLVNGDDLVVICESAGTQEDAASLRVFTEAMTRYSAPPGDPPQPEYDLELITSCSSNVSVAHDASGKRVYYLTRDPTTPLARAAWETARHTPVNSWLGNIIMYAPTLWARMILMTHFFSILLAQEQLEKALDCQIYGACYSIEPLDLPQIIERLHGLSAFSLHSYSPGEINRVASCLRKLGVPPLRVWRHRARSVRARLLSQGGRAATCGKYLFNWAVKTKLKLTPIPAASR

In turn, `COC(=O)[C@H](Cc1c[nH]cn1)NC(=O)c1ccc2c(C3CCCCC3)c3n(c2c1)CCOc1cc(OC)ccc1-3` [Example 2-280, methyl (S)-2-[(12-cyclohexyl-3-methoxy-6,7-dihydro-5-oxa-7a-azadibenzo[a,e]azulene-9-carbonyl)amino]-3-(1H-imidazol-4-yl)propionate] came in with an IC50 of less than 100 nM.

Regarding `Cc1ccc2c(c1)N(CCN1CCC(C)CC1)CCn1c-2c(C2CCCCC2)c2ccc(C(=O)O)cc21` [Example 1-259, 13-cyclohexyl-3-methyl-5-[2-(4-methylpiperidin-1-yl)ethyl]-6,7-dihydro-5H-benzo[5,6][1,4]diazepino[7,1-a]indole-10-carboxylic acid dihydrochloride], the IC50 was less than 100 nM. On to `O=C(O)c1ccc2c(C3CCCCC3)c3n(c2c1)CCN(CC(=O)N1CCCC(O)C1)c1ccccc1-3` (stereo not shown) [Example 1-106, 13-cyclohexyl-5-[2-(3-hydroxypiperidin-1-yl)-2-oxoethyl]-6,7-dihydro-5H-benzo[5,6][1,4]diazepino[7,1-a]indole-10-carboxylic acid monohydrochloride], for which the IC50 was less than 100 nM. The compound `COc1ccc2c(c1)OCCn1c-2c(C2CCCCC2)c2ccc(C(=O)N[C@@H](Cc3c[nH]cn3)C(=O)O)cc21` [Example 2-310, (S)-2-[(12-cyclohexyl-3-methoxy-6,7-dihydro-5-oxa-7a-azadibenzo[a,e]azulene-9-carbonyl)amino]-3-(1H-imidazol-4-yl)propionic acid] gave an IC50 of less than 100 nM. Consider `CC(C)(NC(=O)c1ccc2c(C3CCCCC3)c3n(c2c1)CCOc1ccccc1-3)C(=O)N1CCC(O)CC1` [Example 2-190, N-[2-(4-hydroxypiperidin-1-yl)-1,1-dimethyl-2-oxoethyl]-12-cyclohexyl-6,7-dihydro-5-oxa-7a-azadibenzo[a,e]azulene-9-carboxamide], for which the IC50 was less than 100 nM. As for `CC(C)C1CCN(C(=O)CN2CCn3c(c(C4CCCCC4)c4ccc(C(=O)O)cc43)-c3ccccc32)CC1` [Example 1-124, 13-cyclohexyl-5-[2-(4-isopropylpiperidin-1-yl)-2-oxoethyl]-6,7-dihydro-5H-benzo[5,6][1,4]diazepino[7,1-a]indole-10-carboxylic acid monohydrochloride], the figure is less than 100 nM; as for `COC(=O)[C@H](NC(=O)c1ccc2c(C3CCCCC3)c3n(c2c1)CCOc1cc(OC)ccc1-3)c1ccc(O)cc1` [Example 2-271, methyl (R)-2-[(12-cyclohexyl-3-methoxy-6,7-dihydro-5-oxa-7a-azadibenzo[a,e]azulene-9-carbonyl)amino]-2-(4-hydroxyphenyl)acetate], less than 100 nM. In turn, `COC(=O)[C@H](Cc1ccc(NS(C)(=O)=O)cc1)NC(=O)c1ccc2c(C3CCCCC3)c3n(c2c1)CCOc1cc(OC)ccc1-3` [Example 2-339, methyl (S)-2-[(12-cyclohexyl-3-methoxy-6,7-dihydro-5-oxa-7a-azadibenzo[a,e]azulene-9-carbonyl)amino]-3-(4-methanesulfonylaminophenyl)propionate] registered an IC50 of less than 100 nM. For `COc1ccc(Oc2ccc3c(c2)OCCn2c-3c(C3CCCCC3)c3ccc(C(=O)O)cc32)cc1` [Example 2-25, 12-cyclohexyl-3-(4-methoxyphenoxy)-6,7-dihydro-5-oxa-7a-azadibenzo[a,e]azulene-9-carboxylic acid], the IC50 is less than 100 nM.

`Cc1ccc2c(c1)N(CCN1CCC[C@@H](CC(=O)N(C)C)C1)CCn1c-2c(C2CCCCC2)c2ccc(C(=O)O)cc21` [Example 1-527, 13-cyclohexyl-5-{2-[(S)-3-(dimethylcarbamoylmethyl)piperidin-1-yl]ethyl}-3-methyl-6,7-dihydro-5H-benzo[5,6][1,4]diazepino[7,1-a]indole-10-carboxylic acid dihydrochloride] registered an IC50 of less than 100 nM.
